System: 993429-296-R-J1-PDC complex spheroid growth, percent test/control
Assay: Anticancer human tumor 993429-296-R-J1-PDC patient-derived uterine sarcoma cell line growth inhibition [Asc]
Conditions: for IC50: curve of first compound; for viability, T/C: stronger effect = lower value
Method in brief: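 Complex spheroids combining tumor cells with HUVEC endothelial cells and human MSCs, at 37 degrees C, 5% CO2; agents tested alone or combined, half-log dilutions from at or near clinical Cmax, or 10 microM if Cmax unknown.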

[1] = second compound 0.1 µM, first compound 0.00316 µM
[2] = second compound 0.1 µM, first compound 0.01 µM
[3] = second compound 0.1 µM, first compound 0.0316 µM
[4] = second compound 0.1 µM, first compound 0.1 µM
[5] = second compound 0.316 µM, first compound 0.00316 µM
[6] = second compound 0.316 µM, first compound 0.01 µM
[7] = second compound 0.316 µM, first compound 0.0316 µM
[8] = second compound 0.316 µM, first compound 0.1 µM
[9] = second compound 1 µM, first compound 0.00316 µM
[10] = second compound 1 µM, first compound 0.01 µM
[11] = second compound 1 µM, first compound 0.0316 µM
[12] = second compound 1 µM, first compound 0.1 µM
[13] = second compound 3.16 µM, first compound 0.00316 µM
[14] = second compound 3.16 µM, first compound 0.01 µM
[15] = second compound 3.16 µM, first compound 0.0316 µM
[16] = second compound 3.16 µM, first compound 0.1 µM
[17] = second compound 10 µM, first compound 0.00316 µM
[18] = second compound 10 µM, first compound 0.01 µM
[19] = second compound 10 µM, first compound 0.0316 µM
[20] = second compound 10 µM, first compound 0.1 µM
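Further: spheroids exposed to compounds for seven days.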

COc1c(OCCCN2CCOCC2)ccc2c3n(c(=NC(=O)c4cnc(N)nc4)nc12)CCN3 + Cc1c(S(C)(=O)=O)c(-c2cc(F)cc(N3CCN(c4ccc(NS(=O)(=O)c5ccc(NC(CCN6CCC(C(=O)OCCCP(=O)(O)O)CC6)CSc6ccccc6)c(S(=O)(=O)C(F)(F)F)c5)cc4)CC3)c2)c(-c2ccc(Cl)cc2)n1C(C)C
IC50 (second compound 0.1 µM): 12.6 nM
IC50 (second compound 0.316 µM): 11.6 nM
IC50 (second compound 1 µM): 4.23 nM
IC50 (second compound 3.16 µM): < 3.16 nM
IC50 (second compound 10 µM): 10.1 nM
viability, T/C [1]: 76.5%
viability, T/C [2]: 54.1%
viability, T/C [3]: 29.3%
viability, T/C [4]: 3.96%
viability, T/C (second compound 0.1 µM, first compound 0.316 µM): 1.63%
viability, T/C (second compound 0.1 µM, first compound 1 µM): 0.23%
viability, T/C [5]: 71.7%
viability, T/C [6]: 54%
viability, T/C [7]: 22.2%
viability, T/C [8]: 3.44%
viability, T/C (second compound 0.316 µM, first compound 0.316 µM): 0.88%
viability, T/C (second compound 0.316 µM, first compound 1 µM): 0.17%
viability, T/C [9]: 54.2%
viability, T/C [10]: 37.9%
viability, T/C [11]: 23.3%
viability, T/C [12]: 3.11%
viability, T/C (second compound 1 µM, first compound 0.316 µM): 0.68%
viability, T/C (second compound 1 µM, first compound 1 µM): 0.31%
viability, T/C [13]: 35.8%
viability, T/C [14]: 33.7%
viability, T/C [15]: 14.8%
viability, T/C [16]: 2.35%
viability, T/C (second compound 3.16 µM, first compound 0.316 µM): 0.33%
viability, T/C (second compound 3.16 µM, first compound 1 µM): 0.18%
viability, T/C [17]: 79.3%
viability, T/C [18]: 49.4%
viability, T/C [19]: 20.7%
viability, T/C [20]: 1.24%
viability, T/C (second compound 10 µM, first compound 0.316 µM): 0.28%
viability, T/C (second compound 10 µM, first compound 1 µM): 0.25%

NC(=O)C(=Cn1cnc(-c2cc(C(F)(F)F)cc(C(F)(F)F)c2)n1)c1cncnc1 + Cc1c(S(C)(=O)=O)c(-c2cc(F)cc(N3CCN(c4ccc(NS(=O)(=O)c5ccc(NC(CCN6CCC(C(=O)OCCCP(=O)(O)O)CC6)CSc6ccccc6)c(S(=O)(=O)C(F)(F)F)c5)cc4)CC3)c2)c(-c2ccc(Cl)cc2)n1C(C)C
IC50 (second compound 0.1 µM): 7.94 nM
IC50 (second compound 0.316 µM): 5.62 nM
IC50 (second compound 1 µM): < 0.949 nM
IC50 (second compound 3.16 µM): 0.989 nM
IC50 (second compound 10 µM): 9.35 nM
viability, T/C (second compound 0.1 µM, first compound 0.000949 µM): 79.2%
viability, T/C (second compound 0.1 µM, first compound 0.003 µM): 63%
viability, T/C (second compound 0.1 µM, first compound 0.00949 µM): 50.8%
viability, T/C (second compound 0.1 µM, first compound 0.03 µM): 17.5%
viability, T/C (second compound 0.1 µM, first compound 0.0949 µM): 5.75%
viability, T/C (second compound 0.1 µM, first compound 0.3 µM): 1.24%
viability, T/C (second compound 0.316 µM, first compound 0.000949 µM): 67%
viability, T/C (second compound 0.316 µM, first compound 0.003 µM): 59.9%
viability, T/C (second compound 0.316 µM, first compound 0.00949 µM): 41.4%
viability, T/C (second compound 0.316 µM, first compound 0.03 µM): 13.1%
viability, T/C (second compound 0.316 µM, first compound 0.0949 µM): 2.18%
viability, T/C (second compound 0.316 µM, first compound 0.3 µM): 0.54%
viability, T/C (second compound 1 µM, first compound 0.000949 µM): 48.8%
viability, T/C (second compound 1 µM, first compound 0.003 µM): 48.6%
viability, T/C (second compound 1 µM, first compound 0.00949 µM): 32.4%
viability, T/C (second compound 1 µM, first compound 0.03 µM): 9.81%
viability, T/C (second compound 1 µM, first compound 0.0949 µM): 1.61%
viability, T/C (second compound 1 µM, first compound 0.3 µM): 0.15%
viability, T/C (second compound 3.16 µM, first compound 0.000949 µM): 50.8%
viability, T/C (second compound 3.16 µM, first compound 0.003 µM): 35.8%
viability, T/C (second compound 3.16 µM, first compound 0.00949 µM): 24.6%
viability, T/C (second compound 3.16 µM, first compound 0.03 µM): 11.9%
viability, T/C (second compound 3.16 µM, first compound 0.0949 µM): 2.12%
viability, T/C (second compound 3.16 µM, first compound 0.3 µM): 0.26%
viability, T/C (second compound 10 µM, first compound 0.000949 µM): 75.6%
viability, T/C (second compound 10 µM, first compound 0.003 µM): 71.1%
viability, T/C (second compound 10 µM, first compound 0.00949 µM): 49.9%
viability, T/C (second compound 10 µM, first compound 0.03 µM): 13.7%
viability, T/C (second compound 10 µM, first compound 0.0949 µM): 1.63%
viability, T/C (second compound 10 µM, first compound 0.3 µM): 0.26%

NC1CCC(NC2CC2c2ccccc2)CC1 (stereo not given) + Cc1c(S(C)(=O)=O)c(-c2cc(F)cc(N3CCN(c4ccc(NS(=O)(=O)c5ccc(NC(CCN6CCC(C(=O)OCCCP(=O)(O)O)CC6)CSc6ccccc6)c(S(=O)(=O)C(F)(F)F)c5)cc4)CC3)c2)c(-c2ccc(Cl)cc2)n1C(C)C
IC50 (second compound 0.1 µM): > 100 nM
IC50 (second compound 0.316 µM): 8.25 nM
IC50 (second compound 1 µM): < 0.316 nM
IC50 (second compound 3.16 µM): < 0.316 nM
IC50 (second compound 10 µM): < 0.316 nM
viability, T/C (second compound 0.1 µM, first compound 0.000316 µM): 72.7%
viability, T/C (second compound 0.1 µM, first compound 0.001 µM): 65.1%
viability, T/C [1]: 65%
viability, T/C [2]: 57.6%
viability, T/C [3]: 65.2%
viability, T/C [4]: 65.3%
viability, T/C (second compound 0.316 µM, first compound 0.000316 µM): 61.2%
viability, T/C (second compound 0.316 µM, first compound 0.001 µM): 60.9%
viability, T/C [5]: 57%
viability, T/C [6]: 46.4%
viability, T/C [7]: 47.9%
viability, T/C [8]: 51.6%
viability, T/C (second compound 1 µM, first compound 0.000316 µM): 32.5%
viability, T/C (second compound 1 µM, first compound 0.001 µM): 30.4%
viability, T/C [9]: 29.1%
viability, T/C [10]: 30.5%
viability, T/C [11]: 28.3%
viability, T/C [12]: 35.4%
viability, T/C (second compound 3.16 µM, first compound 0.000316 µM): 27%
viability, T/C (second compound 3.16 µM, first compound 0.001 µM): 28.9%
viability, T/C [13]: 28.6%
viability, T/C [14]: 25.6%
viability, T/C [15]: 30.5%
viability, T/C [16]: 31.7%
viability, T/C (second compound 10 µM, first compound 0.000316 µM): 30%
viability, T/C (second compound 10 µM, first compound 0.001 µM): 41.7%
viability, T/C [17]: 26.4%
viability, T/C [18]: 26.3%
viability, T/C [19]: 32.9%
viability, T/C [20]: 36.8%
